Source: patent US20260152494A1, “CDK2 INHIBITORS AND METHODS OF USING THE SAME” (Cedilla Therapeutics, Inc., priority 2022, published 2026)

Columns and labels:
CDK2/Cyclin E1 = biological target: T1, CDK2/Cyclin E1 (Homo sapiens, UniProt P24941); experiment: CDK2/Cyclin E1 Caliper LabChip EZ Reader mobility shift assay; format: biochemical; settings: 2.5 nM CDK2/Cyclin E1, 100 μM ATP, 1.5 μM fluorescent peptide, 30 min preincubation; read-out: Caliper Assay (CDK2/CCNE1): IC50
T1 construct: purchased Eurofins 14-475
Method: Example A1: CDK2/Cyclin E1 Caliper Assay
Inhibition of CDK2/Cyclin E1 activity in the presence of compounds of the present disclosure was evaluated using a Caliper LabChip® EZ Reader mobility shift assay. In the assay, CDK2/Cyclin E1 (Eurofins, 14-475) catalyzed the phosphorylation of a fluorescently tagged peptide 5-FAM-QSPKKG-CONH2 (PerkinElmer, FL Peptide 18) which induced a difference in capillary electrophoresis mobility. The peptide substrate and product were measured, and the conversion ratio was used to determine the inhibition (as % activity and IC50 values) of CDK2/Cyclin E1. Reactions contained 50 mM HEPES pH 7.5, 10 mM MgCl2, 1 mM EDTA, 2 mM DTT, 0.01% Brij35, 0.5 mg/mL BSA, 0.1% DMSO, 2.5 nM CDK2/Cyclin E1, 100 μM ATP, and 1.5 μM fluorescent peptide substrate.
Dose titrations of inhibitors in 100% DMSO were combined with 3.25 nM CDK2/Cyclin E1 and 130 μM of ATP in reaction buffer. The mixtures were incubated for 30 minutes before the addition of fluorescent peptide substrate to initiate the kinase reaction. The final conditions were 2.5 nM CDK2/Cyclin E1, 100 μM ATP, and 1.5 μM fluorescent peptide. The reactions were stopped after 100 minutes with the addition of EDTA (400 mM final EDTA concentration). The stopped reactions were analyzed on a Caliper LabChip® EZ Reader II. The conversion ratios were normalized to yield % activity, plotted against compound concentration, and fit to a four-parameter equation to determine the IC50 for each compound.

[1] = system: Kuramochi cells labeled with mApple-H2B; experiment: IncuCyte cell proliferation assay; format: cell-based; settings: Kuramochi RB-WT cells, 72 hours, cell count normalized to DMSO
Method: Example A3: IncuCyte® Cell Proliferation Assay
IncuCyte® assay was used to measure the effect of disclosed compounds on cell proliferation. Fluorescent microscopy images of cells were taken immediately after compound treatment and 72 hours later. Image analysis software was used to obtain cell counts as a function of compound concentration. Kuramochi cells labeled with mApple-H2B were seeded on 384-well assay-ready plates. Plates were placed in an IncuCyte® (Sartorius) and scanned at 0 and 72 hours. IncuCyte® software was used to count the number of fluorescent nuclei in each well. The fold change in cell count from 0 to 72 hours in wells treated with increasing compounds concentrations (10 pts, 1/2 log dilution, 20 μM top concentration) was normalized to DMSO control wells. The normalized cell counts were fit with dose response curves and a GI50 was calculated.

| SMILES | IC50 (CDK2/Cyclin E1) [µM] | IC50 [1] [µM] |
| --- | --- | --- |
| CC1(C)C[C@@H]1C(=O)N1CC2(CN(C(=O)c3cnn(Cc4ccccc4)c3)CC2C#N)C1 (stereo partly drawn) [Compound I-40, 6-(1-benzyl-1H-pyrazole-4-carbonyl)-2-((S)-2,2-dimethylcyclopropane-1-carbonyl)-2,6-diazaspiro[3.4]octane-8-carbonitrile] | > 10 |  |
| COC[C@H]1CCCN(C(=O)[C@@H](NC(=O)[C@@H]2CN(C(=O)c3cncs3)CC23CN([S+]([O-])C(C)(C)C)C3)[C@@H](C)OCC2CCCCC2)C1 (stereo partly drawn) [Compound I-17, (8S)-2-(tert-butylsulfinyl)-N-((2S,3R)-3-(cyclohexylmethoxy)-1-((S)-3-(methoxymethyl)piperidin-1-yl)-1-oxobutan-2-yl)-6-(thiazole-5-carbonyl)-2,6-diazaspiro[3.4]octane-8-carboxamide] | 1 to 10 | > 20 |
| O=C(c1cnccn1)N1CC(c2nnc(C(F)(F)c3ccc(Cl)c(Cl)c3)o2)C2(CCOCC2)C1 (stereo not drawn) [Compound I-10] | > 10 | > 20 |
| C[C@@H](OCC1CCCCC1)[C@H](NC(=O)[C@@H]1CN(C(=O)OC(C)(C)C)CC12CN(C(=O)[C@H]1CC1(C)C)C2)C(=O)N1CCCCC1 [Compound I-38] | 1 to 10 | > 20 |
| O=C(c1cncs1)N1CC(c2nnc(C(F)(F)c3ccc(Cl)c(Cl)c3)o2)C2(CCNCC2)C1 (stereo not drawn) [Compound I-9] | > 10 | > 20 |
| O=C(c1cncs1)N1CC(c2nnc(C(F)(F)c3ccc(Cl)c(Cl)c3)o2)C2(CCS(=O)(=O)CC2)C1 (stereo not drawn) [Compound I-8, (4-(5-((3,4-dichlorophenyl)difluoromethyl)-1,3,4-oxadiazol-2-yl)-8,8-dioxido-8-thia-2-azaspiro[4.5]decan-2-yl)(thiazol-5-yl)methanone] | > 10 | > 20 |
| CCOC(=O)[C@@H]1CN(C(C)=O)CC12CN(C(C)=O)C2 [Compound I-28, ethyl (S)-2,6-diacetyl-2,6-diazaspiro[3.4]octane-8-carboxylate] | > 10 | > 20 |
| O=C(c1cncs1)N1CC(c2nnc(C(F)(F)c3ccc(Cl)c(Cl)c3)o2)C2(CCC2)C1 (stereo not drawn) [Compound I-11, (8-(5-((3,4-dichlorophenyl)difluoromethyl)-1,3,4-oxadiazol-2-yl)-6-azaspiro[3.4]octan-6-yl)(thiazol-5-yl)methanone] | > 10 | > 20 |
| O=C(c1cncs1)N1CC(c2nnc(C(F)(F)c3ccc(Cl)c(Cl)c3)o2)C2(CCN(C(=O)[C@H]3CC3(F)F)CC2)C1 (stereo partly drawn) [Compound I-2, (4-(5-((3,4-dichlorophenyl)difluoromethyl)-1,3,4-oxadiazol-2-yl)-2-(thiazole-5-carbonyl)-2,8-diazaspiro[4.5]decan-8-yl)((R)-2,2-difluorocyclopropyl)methanone] | > 10 | > 20 |
| CNC(=O)[C@@H](NC(=O)[C@@H]1CN(C(C)=O)CC12CN(C(=O)[C@H]1CC1(C)C)C2)[C@@H](C)OCC1CCCCC1 [Compound I-39] | > 10 | > 20 |
| O=C(c1cncs1)N1CC(c2nnc(C(F)(F)c3ccc(Cl)c(Cl)c3)o2)C2(CCOCC2)C1 (stereo not drawn) [Compound I-12, (4-(5-((3,4-dichlorophenyl)difluoromethyl)-1,3,4-oxadiazol-2-yl)-8-oxa-2-azaspiro[4.5]decan-2-yl)(thiazol-5-yl)methanone] | > 10 | > 20 |
| CNC(=O)[C@@H](NC(=O)[C@@H]1CN(C(=O)c2cnn(Cc3ccccc3)c2)CC12CN(C(=O)N(C)C1CC1)C2)[C@@H](C)OCC1CCCCC1 [Compound I-30, (S)-6-(1-benzyl-1H-pyrazole-4-carbonyl)-N8-((2S,3R)-3-(cyclohexylmethoxy)-1-(methylamino)-1-oxobutan-2-yl)-N2-cyclopropyl-N2-methyl-2,6-diazaspiro[3.4]octane-2,8-dicarboxamide] | 0.1 to 1 | > 20 |
| CC(=O)N1CC(c2nnc(C(F)(F)c3ccc(Cl)c(Cl)c3)o2)C2(CCOCC2)C1 (stereo not drawn) [Compound I-7] | > 10 | > 20 |
| Cc1ccc(CNC(=O)[C@@H]2CN(C(=O)c3cnn(Cc4ccccc4)c3)CC23CN(C(=O)[C@H]2CC2(C)C)C3)nn1 [Compound I-20] | > 10 | > 20 |
| CC(=O)N[C@@H](C(=O)NC1CN(C(=O)c2cncs2)CC12CN(C(=O)[C@H]1CC1(C)C)C2)[C@H](C)OCC1CCCCC1 (stereo partly drawn) [Compound I-24, (2R,3S)-2-acetamido-3-(cyclohexylmethoxy)-N-(2-((S)-2,2-dimethylcyclopropane-1-carbonyl)-6-(thiazole-5-carbonyl)-2,6-diazaspiro[3.4]octan-8-yl)butanamide] | 1 to 10 | > 20 |
| O=C(c1cncs1)N1CC(c2nnc(C(F)(F)c3ccc(Cl)c(Cl)c3)o2)C2(CC(C(=O)N3CCC3)C2)C1 (stereo not drawn) [Compound I-3] |  | > 20 |
| COC[C@H]1CCCN(C(=O)[C@@H](NC(=O)[C@@H]2CN(C(=O)c3cncs3)CC23CN(S(=O)(=O)C2CC2(C)C)C3)[C@@H](C)OCC2CCCCC2)C1 (stereo partly drawn) [Compound I-18] | 1 to 10 |  |

Continued, in another order:

| IC50 (CDK2/Cyclin E1) [µM] | SMILES | IC50 [1] [µM] |
| --- | --- | --- |
| > 10 | C[C@@H](OCC1CCCCC1)[C@H](NC(=O)C1CSCC12CN(C(=O)[C@H]1CC1(C)C)C2)C(=O)N1CCCCC1 (stereo partly drawn) [Compound I-23, N-((2S,3R)-3-(cyclohexylmethoxy)-1-oxo-1-(piperidin-1-yl)butan-2-yl)-2-((S)-2,2-dimethylcyclopropane-1-carbonyl)-6-thia-2-azaspiro[3.4]octane-8-carboxamide] | > 20 |
| 0.1 to 1 | COC[C@H]1CCCN(C(=O)[C@@H](NC(=O)[C@H]2CN(C(=O)c3cncs3)CC23CN(C(=O)[C@H]2CC2(C)C)C3)[C@@H](C)OCC2CCCCC2)C1 [Compound I-21] | 5 to 20 |
| > 10 | C[C@@H](OCC1CCCCC1)[C@H](NC(=O)[C@@H]1CNCC12CN(C(=O)[C@H]1CC1(C)C)C2)C(=O)N1CCOCC1 [Compound I-32, (S)—N-((2S,3R)-3-(cyclohexylmethoxy)-1-morpholino-1-oxobutan-2-yl)-2-((S)-2,2-dimethylcyclopropane-1-carbonyl)-2,6-diazaspiro[3.4]octane-8-carboxamide] | > 20 |
| > 10 | C[C@@H](OCC1CCCCC1)[C@H](NC(=O)C1CS(=O)(=O)CC12CN(C(=O)[C@H]1CC1(C)C)C2)C(=O)N1CCCCC1 (stereo partly drawn) [Compound I-26, N-((2S,3R)-3-(cyclohexylmethoxy)-1-oxo-1-(piperidin-1-yl)butan-2-yl)-2-((S)-2,2-dimethylcyclopropane-1-carbonyl)-6-thia-2-azaspiro[3.4]octane-8-carboxamide 6,6-dioxide] | > 20 |
| > 10 | CNC(=O)[C@@H](NC(=O)[C@H]1CCOC12CN(C(=O)[C@H]1CC1(C)C)C2)[C@@H](C)OCC1CCCCC1 (single isomer, unassigned) [I-35 1st] | > 20 |
| > 10 | C[C@@H](OCC1CCCCC1)[C@H](NC(=O)[C@H]1CCOC12CN(C(=O)[C@H]1CC1(C)C)C2)C(=O)N1CCC[C@@H](N)C1 (single isomer, unassigned) [I-34 2nd] | > 20 |
| > 10 | C[C@@H](OCC1CCCCC1)[C@H](NC(=O)[C@H]1CCOC12CN(C(=O)[C@H]1CC1(C)C)C2)C(=O)N1CCC[C@H](N)C1 (single isomer, unassigned) [I-31 2nd] | > 20 |
| > 10 | CNC(=O)[C@@H](NC(=O)[C@@H]1CCOC12CN(C(=O)[C@H]1CC1(C)C)C2)[C@@H](C)OCC1CCCCC1 (single isomer, unassigned) [I-35 2nd] | > 20 |
| > 10 | CC(=O)N1C[C@@H](C(=O)N[C@H](C(=O)N2CCOCC2)[C@@H](C)OCC2CCCCC2)C2(C1)CN(C(=O)[C@H]1CC1(C)C)C2 [Compound I-36, (S)-6-acetyl-N-((2S,3R)-3-(cyclohexylmethoxy)-1-morpholino-1-oxobutan-2-yl)-2-((S)-2,2-dimethylcyclopropane-1-carbonyl)-2,6-diazaspiro[3.4]octane-8-carboxamide] | > 20 |
| > 10 | C[C@@H](OCC1CCCCC1)C(NC(=O)[C@@H]1CCOC12CN(C(=O)[C@H]1CC1(C)C)C2)C(=O)N1CCCCC1 (single isomer, unassigned) [I-29 1st] | > 20 |
